The values below come from ChEMBL document CHEMBL1201862, “PubChem BioAssay data set” (2004).

A word on the EC50: it is the concentration at which the effect is half-maximal. As usually defined, the GI50 is the concentration that inhibits growth by half. Usually AC50 stands for the midpoint of the concentration-response curve, whichever way the signal moves. By IC50 is commonly meant the concentration that inhibits the measured activity by half.

Calls of active or inactive are those of the source. Some results are limits rather than exact numbers.

One assay concerns H4. Kind of assay: Luminescence Cell-Based Dose Response HTS to Identify Activators of 5'UTR Stem-Loop Driven Prion Protein mRNA Translation in H4 Neuroglioblastoma Cells. [Related pubchem assays: 1829 (Project Summary), 1814 (Primary HTS)]. The assay is classed as functional. Conditions: Homo sapiens.
Assay [1] in a line: Luminescence Cell-Based Dose Confirmation HTS to Identify Activators of 5'UTR Stem-Loop Driven Alpha-Synuclein mRNA Translation in H4 Neuroglioblastoma Cells. [Related pubchem assays: 1829 (Project Summary), 1814 (Primary HTS)]. The assay is classed as functional.
Assay [2] is described as follows: Luminescence Cell-Based Dose Response HTS to Identify Activators of Luciferase Translation or Activity in H4 […] Cells. [Related pubchem assays: 1829 (Project Summary), 1814 (Primary HTS)]. The assay is classed as functional.
In the next assay the test system is P388/ADR. Kind of assay: cells. The conditions noted are these: Mus musculus. The assay is classed as functional.
In another assay the test system is SN12K1. The assay can be described thus: cells. The assay is classed as functional. The conditions noted are these: Homo sapiens.
The next assay concerns P388. Kind of assay: cells. Conditions: Mus musculus. The assay is classed as functional.
Assay [3] in a line: control 3'UTR Renilla luciferase suppression, dose response, counter-screen for Shn3 inhibitor project, cell-based, Clone20-Shn3RL, cherry-picked (AID 624133). The assay is classed as functional. A general note: The purpose of a counterscreen is to sort out artefacts and off-target activity.
Assay [4] is described as follows: Shn3 3'UTR reporter inhibitors, dose response, cell-based, Clone20 osteoblasts, firefly luciferase, cherry-picked (AID 624132).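 Also: firefly luciferase luminescence from reporter carrying the Shn3 3'UTR in osteoblasts.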 The assay is classed as functional.
Assay [5] is described as follows: HepG2 cell cytotoxicity, dose response, cytotoxicity control for Shn3 inhibitor project, CellTiter-Glo, cherry-picked (AID 624134). The assay is classed as functional, cell-based.
A short description of another assay: cells. The assay is classed as functional.
Assay [6] is described as follows: P. falciparum Dd2 growth inhibitors, dose response, SYBR Green, cherry-picked samples (AID 1159567). The assay is classed as functional, cell-based.
The target of assay [7] is T1, Zinc finger protein mex-5 (Caenorhabditis elegans, UniProt Q9XUB2).
T1 sequence (Q9XUB2 whole entry): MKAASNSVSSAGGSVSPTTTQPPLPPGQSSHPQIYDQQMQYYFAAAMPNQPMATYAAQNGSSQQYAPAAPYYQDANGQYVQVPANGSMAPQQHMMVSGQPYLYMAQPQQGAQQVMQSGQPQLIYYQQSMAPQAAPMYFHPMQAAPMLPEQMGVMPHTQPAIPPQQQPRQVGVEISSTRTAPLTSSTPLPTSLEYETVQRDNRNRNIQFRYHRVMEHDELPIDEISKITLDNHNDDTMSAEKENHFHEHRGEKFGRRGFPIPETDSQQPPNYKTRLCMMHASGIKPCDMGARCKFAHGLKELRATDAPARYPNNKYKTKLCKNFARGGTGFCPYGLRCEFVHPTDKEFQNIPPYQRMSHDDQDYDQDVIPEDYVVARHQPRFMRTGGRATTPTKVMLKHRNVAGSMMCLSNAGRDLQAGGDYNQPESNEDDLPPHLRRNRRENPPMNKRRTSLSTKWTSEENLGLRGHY
Kind of assay: MEX-5/TCR-2 RNA interaction inhibitors, dose response, biochemical, C. elegans, fluorescence polarization (AID 1960).

Assay [8] has as its target T2, RNA-binding protein pos-1 (Caenorhabditis elegans, UniProt G5EF15).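 Also: purified POS-1 fused to maltose binding protein made in E. coli; potency of compounds blocking POS-1 binding to fluorescent RNA.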
T2 sequence (G5EF15 whole entry): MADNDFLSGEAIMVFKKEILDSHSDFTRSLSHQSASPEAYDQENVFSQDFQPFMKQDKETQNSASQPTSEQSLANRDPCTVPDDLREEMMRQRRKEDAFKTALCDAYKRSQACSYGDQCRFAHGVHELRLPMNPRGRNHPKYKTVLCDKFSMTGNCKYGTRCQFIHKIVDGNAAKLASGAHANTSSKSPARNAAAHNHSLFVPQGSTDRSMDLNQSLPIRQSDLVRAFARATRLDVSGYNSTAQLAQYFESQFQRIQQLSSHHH
Kind of assay: inhibitors of POS-1/mex-3 RNA binding, dose response, biochemical, fluorescence polarization (AID 1964). (In general: Polarisation of emitted light reports the rotation of a fluorescent probe.)

Assay [9] can be described thus: Luminescence Cell-Based Dose Confirmation HTS to Identify Inhibitors of Platelet Dense Granule Release. [Related pubchem assays: 1663 (Primary HTS), 1678 (Summary of Project)]. The assay is classed as functional.
The target of assay [10] is Luciferin 4-monooxygenase (Photinus pyralis, UniProt P08659). Kind of assay: firefly luciferase enzyme inhibitors, dose response, biochemical, luminescence (AID 1891).
Luciferin 4-monooxygenase, sequence (P08659 whole entry): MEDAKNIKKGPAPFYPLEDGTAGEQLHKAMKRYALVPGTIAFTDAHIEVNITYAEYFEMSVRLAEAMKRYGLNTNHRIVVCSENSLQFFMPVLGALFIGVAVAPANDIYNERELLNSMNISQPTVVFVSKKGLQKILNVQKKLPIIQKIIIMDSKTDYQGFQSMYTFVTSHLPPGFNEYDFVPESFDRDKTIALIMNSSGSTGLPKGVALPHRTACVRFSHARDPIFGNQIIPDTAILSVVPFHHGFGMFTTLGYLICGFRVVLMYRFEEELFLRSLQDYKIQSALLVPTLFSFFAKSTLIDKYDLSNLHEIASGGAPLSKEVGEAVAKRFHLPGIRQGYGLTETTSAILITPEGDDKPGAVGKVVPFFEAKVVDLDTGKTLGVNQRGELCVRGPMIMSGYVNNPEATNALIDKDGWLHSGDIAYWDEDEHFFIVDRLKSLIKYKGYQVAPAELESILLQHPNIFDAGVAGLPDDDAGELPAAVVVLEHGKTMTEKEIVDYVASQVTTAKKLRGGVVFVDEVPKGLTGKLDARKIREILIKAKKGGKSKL
Assay [11] in a line: inhibitors of intracellular T. cruzi replication, confirmation, NIH3T3 host cells, beta-gal luminescence (AID 2044).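 Also: intracellular parasites grown in NIH/3T3 mouse fibroblasts as host cells; luminescent beta-galactosidase reporter signal from transgenic T. cruzi replicating inside host cells; inhibitors lower the luminescence signal.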 The assay is classed as functional, cell-based.
The nature of assay [12]: cytotoxicity toward NIH3T3 fibroblasts, dose response, counter-screen, cell-based, ATP luminescence, mouse fibroblasts (AID 2010).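 Also: cells exposed to compound for about 90 hours before reading.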 The assay is classed as functional.
Assay [13] concerns the target T3, Rac GTPase-activating protein 1 (Homo sapiens, UniProt Q9H0H5).
T3 sequence (Q9H0H5 whole entry): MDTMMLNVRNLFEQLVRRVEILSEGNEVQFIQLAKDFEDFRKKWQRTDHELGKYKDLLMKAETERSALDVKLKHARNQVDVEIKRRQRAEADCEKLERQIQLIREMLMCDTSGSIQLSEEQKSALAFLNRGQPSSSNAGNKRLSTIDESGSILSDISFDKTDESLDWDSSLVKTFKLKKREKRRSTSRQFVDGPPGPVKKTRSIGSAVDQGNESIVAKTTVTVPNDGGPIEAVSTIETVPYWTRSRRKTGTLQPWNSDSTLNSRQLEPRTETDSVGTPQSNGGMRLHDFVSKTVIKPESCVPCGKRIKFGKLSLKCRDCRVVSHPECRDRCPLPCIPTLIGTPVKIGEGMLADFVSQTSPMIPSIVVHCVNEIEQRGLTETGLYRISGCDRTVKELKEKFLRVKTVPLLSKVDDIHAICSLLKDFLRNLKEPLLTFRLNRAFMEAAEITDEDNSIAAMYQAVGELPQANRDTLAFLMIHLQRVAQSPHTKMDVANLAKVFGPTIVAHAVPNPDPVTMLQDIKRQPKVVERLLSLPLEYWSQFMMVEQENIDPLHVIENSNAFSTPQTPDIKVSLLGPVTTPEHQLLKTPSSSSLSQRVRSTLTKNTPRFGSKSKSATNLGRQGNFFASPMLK
Kind of assay: MgcRacGAP GTPase-activating activity inhibitors, confirmation, biochemical, ADP Hunter fluorescence, primary and confirmatory (AID 624330). The assay is classed as functional.

With `Cc1cc(-c2sccc2Br)nc(-n2cccc2)n1`, the EC50 in the assay on H4 is 9.52 µM (active); in [1] it was > 120 µM (not active); in assay [2], 13.3 µM (active).
Regarding `O=CNc1cccc2c3c([nH]c12)CCCCCC3`, the GI50 is 73.1 µM (inactive) in the assay on P388/ADR, > 100 µM (inactive) with SN12K1 and > 65.3 µM (inactive) in the assay with P388.
In the case of `C=C1C(=O)OC2CC3(C)OC3C3OC3C3=CC(OC3=O)C12` (stereo not given), the AC50 in [3] was 1.86 µM (active); in assay [4], 1.45 µM (active); in [5], 19.2 µM (active).
As to `Nc1nc(=O)n(C2OC(CO)C(O)C2O)cc1F` (stereo not given), the GI50 in the assay with P388/ADR was 0.016 µM (active); with SN12K1 it was 0.0705 µM (active); in the assay with P388 it was < 0.0107 µM (active).
In the same order, the values of `O[C@H]1[C@H](O)[C@@H](O)CN2CC[C@H](O)[C@H]12` [CASTANOSPERMINE] are > 91 µM (inactive), > 100 µM (inactive) and > 100 µM (inactive).
Regarding `CCCCNC(=O)COC(=O)c1cc(Br)ccc1Cl`, the 50% inhibitory concentration (IC50) in “cells” is 9.24 µM (active).
For `CCCOC1CCCN(C(=O)c2cc(COc3cncc(Cl)c3)on2)C1` (stereo not given), the half-maximal effective concentration (EC50) with H4 was 59.7 µM (active); in assay [1] it was 3.46 µM (active); in assay [2], 47.5 µM (active).
Take `Cn1cccc1/C=N/NC(=O)c1ccncc1`: the IC50 in the assay “cells” is 0.75 µM (active).
Turning to `C/C=C/c1ccc2c(c1)[C@H]1[C@H](CCN1C(=O)c1ccc3c(c1)OCO3)[C@H](CO)N2`, in assay [6], the AC50 is 6.34 µM (active).
Take `CCOC(=O)c1cc(C)n(CCc2ccccc2)c1C`: the figures for the EC50 (in the assay with H4; in assay [1]; in assay [2]) were > 120 µM (not active), > 120 µM (not active) and 15.7 µM (active), respectively.
Take `COc1cc(O)c2c(=O)c(-c3ccc(O[C@@H]4O[C@H](CO)[C@@H](O)[C@H](O)[C@H]4O)cc3)coc2c1`: the figures for the EC50 (in the assay on H4; in assay [1]; in assay [2]) were 21.2 µM (active), 0.25 µM (active) and 38.6 µM (active), respectively.
Regarding `CN(C)/N=N/c1[nH]cnc1C(N)=O` [DACARBAZINE], the GI50 was 40.3 µM (inactive) in the assay with P388/ADR, 28.6 µM (inactive) in the assay on SN12K1 and 19.3 µM (inactive) in the assay with P388.
Consider `COc1ccc(C(=O)C(C)OC(=O)c2cccc(S(=O)(=O)Nc3cc(Cl)c(OC)cc3OC)c2)cc1` (stereo not given), for which the AC50 in assay [3] is 28.6 µM (active); in [4], 5.54 µM (active); in [5], > 70 µM (inactive).
Regarding `CC(=O)c1ccc2c(c1)C1C=CCC1C(c1ccncc1)N2` (stereo not given), the EC50 in assay [7] was 47.7 µM (active); in assay [8], > 300 µM (not active); with H4, 25.5 µM (active); in [1], 14.4 µM (active); in [2] it was 9.61 µM (active).
`C[C@H](CO)N1C[C@H](C)[C@@H](CN(C)C(=O)c2ccccc2F)Oc2ncc(C#Cc3ccccc3)cc2C1=O`: in [6], the AC50 was 4.79 µM (active).
On to `O=C(/C=C/c1ccccc1Cl)Nc1ccncc1`, for which the EC50 in [9] was 26.7 µM (active); in the assay on H4 it was 0.524 µM (active); in assay [10] it was 20.6 µM (active); in assay [1] it was 26.2 µM (active); in assay [2] it was 56.2 µM (active).
On to `CC1[C@@H]2CC=C3[C@H]4CCC5Cc6nc7c(nc6C[C@@]5(C)C4(O)CC(=O)[C@]32CO[C@]12OC(C)(C)CC2O)CC1CC[C@@H]2C3=C[C@H]4O[C@@]5(O[C@@](C)(CO)C[C@@H]5O)C(C)[C@@]4(O)[C@]3(C)[C@@H](O)CC2[C@]1(C)C7` (stereo not given in full), for which the GI50 in the assay with P388/ADR is 0.00879 µM (active); in the assay with P388 it was 0.00036 µM (active).
Regarding `C=C1CC(COc2cc(=O)oc3ccccc23)(c2ccccc2)OC1=O` (stereo not given), the AC50 in [3] is 7.58 µM (active); in [4], 3.93 µM (active); in [5], 13.7 µM (active).
As to `CCN(CC)CCNC(=O)c1nn(-c2ccc(C)cc2)c(=O)c2c1c1ccccc1n2C`, the half-maximal effective concentration (EC50) in [11] was 0.157 µM (active); in the assay on H4, 61.3 µM (active); in assay [12] it was > 30 µM (not active); in assay [1], 15 µM (active); in [2] it was > 120 µM (not active).
`O=C(N/N=C/c1ccccn1)c1cccc(S(=O)(=O)Nc2ccccc2Cl)c1`: the IC50 in the assay “cells” is 47.1 µM (active).
Consider `CC(C)(C)OC(=O)NCCCCCNC(=O)c1[nH]cnc1C(=O)NCc1ccc(CNC(=O)OC(C)(C)C)cc1`, for which the concentration at half-maximal activity (AC50) was 8.62 µM (active) in assay [3], 3.95 µM (active) in [4] and > 70 µM (inactive) in assay [5].
As to `O=C(N/N=C/c1cccc2nccnc12)c1ccncc1`, the IC50 in “cells” was 0.21 µM (active).
As to `CN(C)CCNCc1c2ccccc2c(CNCCN(C)C)c2ccccc12`, the GI50 is > 100 µM (inactive) with P388/ADR, 25 µM (inactive) with SN12K1 and 36.9 µM (inactive) in the assay on P388.
For `O=C(Nc1ccccc1F)c1ccc2nc(N3C(=O)CCC3=O)sc2c1`, the half-maximal effective concentration (EC50) in the assay with H4 was 8.54 µM (active); in assay [1], 29.8 µM (active); in [2] it was 32.5 µM (active).
Taken in the same sequence, the figures for `CCc1cccc(NC(=O)Nc2cccs2)c1` were > 120 µM (not active), 14.6 µM (active) and 2.48 µM (active).
`CCN1CC2(CO)CCC(OC)C34C5CC6C(OC)CC(O)(C5C6OC)C(O)(C(OC)C23)C14` (stereo not given): the GI50 in the assay with P388/ADR is > 80.7 µM (inactive); in the assay with SN12K1, > 375 µM (inactive); in the assay with P388, > 174 µM (inactive).
Consider `O=C(O)CCC(NC(=O)c1ccc(Nc2nc3ccc(C(F)(F)F)cc3nc2-c2ccccc2)cc1)C(=O)O` (stereo not given), for which the figures for the GI50 with P388/ADR, in the assay on SN12K1 and in the assay with P388 were 71.1 µM (inactive), > 100 µM (inactive) and 35 µM (inactive), respectively.
Turning to `O=C(N/N=C/C=C/c1ccccc1[N+](=O)[O-])c1ccncc1`, the half-inhibitory concentration (IC50) in the assay “cells” was 0.4 µM (active).
On to `c1ccc(-c2ccccc2OCCCCn2ccnc2)cc1`, for which the half-inhibitory concentration (IC50) in assay [13] is 127 µM (active); in “cells”, 18.1 µM (active).
Take `Cn1c(-c2ccccc2)cc(-c2cccs2)c1-c1cccs1`: the GI50 is 33.2 µM (inactive) with P388/ADR, 18.1 µM (inactive) in the assay on SN12K1 and 10.8 µM (inactive) in the assay on P388.
